Reference: patent publication US9636338B2, “Phenyl-dihydropyridine derivatives as inhibitors of aldosterone synthase” (Hoffmann-La Roche Inc., priority 2013, dated 2017)

Key:
CYP11B2 = CYP11B2 (Homo sapiens (Human), UniProt P19099); experiment: G-402 cellular enzyme assay, human CYP11B2 (aldosterone release, HTRF); type: cell-based; details: G-402 cells expressing human CYP11B2; 1 μM Deoxycorticosterone
From the text: (§1) Herein we identified the use of the G-402 cell line as a host cell to ectopically express (transiently or stably) enzymes of the CYP11 family. Specifically we developed stable G-402 cells expressing ectopically human CYP11B1, human CYP11B2, human CYP11A1, cynmolgus CYP11B1 or cynomolgus CYP11B2 enzyme activity. Importantly the identified cell line G-402 expresses co-factors (adrenodoxin and adrenodoxin reductase) important for the activity of the CYP11 family and no relevant enzyme activity of the CYP11 family (in comparison to H295R cells) was detected in these cells. Therefore the G-402 cell line is uniquely suited as a host cell for the ectopic expression of enzymes from the CYP11 family. G-402 cells can be obtained from ATCC (CRL-1440) and were originally derived from a renal leiomyoblastoma.
(§2) The expression plasmids contains the ORF for either human/cyno CYP11B1 or CYP11B2 under the control of a suitable promoter (CMV-promoter) and a suitable resistance marker (neomycin). Using standard techniques the expression plasmid is transfected into G-402 cells and these cells are then selected for expressing the given resistance markers. Individual cell-clones are then selected and assessed for displaying the desired enzymatic activity using 11-Deoxycorticosterone (Cyp11B2) or 11-Deoxycortisol (Cyp11B1) as a substrate.
(§3) G-402 cells expressing CYP11 constructs were established as described above and maintained in McCoy's 5a Medium Modified, ATCC Catalog No. 30-2007 containing 10% FCS and 400 μg/ml G418 (Geneticin) at 37° C. under an atmosphere of 5% CO2/95% air. Cellular enzyme assays were performed in DMEM/F12 medium containing 2.5% charcoal treated FCS and appropriate concentration of substrate (0.3-10 uM 11-Deoxycorticosterone, 11-Deoxycortisol or Corticosterone). For assaying enzymatic activity, cells were plated onto 96 well plates and incubated for 16 h. An aliquot of the supernatant is then transferred and analyzed for the concentration of the expected product (Aldosterone for CYP11B2; Cortisol for CYP11B1). The concentrations of these steroids can be determined using HTRF assays from CisBio analyzing either Aldosterone or Cortisol.
(§4) Inhibition of the release of produced steroids can be used as a measure of the respective enzyme inhibition by test compounds added during the cellular enzyme assay. The dose dependent inhibition of enzymatic activity by a compound is calculated by means of plotting added inhibitor concentrations (x-axes) vs. measured steroid/product level (y-axes). The inhibition is then calculated by fitting the following 4-parameter sigmoidal function (Morgan-Mercer-Flodin (MMF) model) to the raw data points using the least squares method:
(§5) [formula] wherein, A is the maximum y value, B is the EC50 factor determined using XLFit, C is the minimum y value and D is the slope value.
(§6) EC50 values for compounds claimed herein were tested with the G402-based assay system described. Cyp11B2 enzyme activity was tested in presence of 1 μM Deoxycorticosterone and variable amounts of inhibitors; Cyp11B1 enzyme activity was tested in presence of 1 μM Deoxycortisol and variable amounts of inhibitors.

human CYP11B1 = human CYP11B1 (Homo sapiens (Human), UniProt P15538); experiment: G-402 cellular enzyme assay, human CYP11B1 (cortisol release, HTRF); type: cell-based; details: G-402 cells expressing human CYP11B1; 1 μM Deoxycortisol
Chain of human CYP11B1 (P15538 25-503): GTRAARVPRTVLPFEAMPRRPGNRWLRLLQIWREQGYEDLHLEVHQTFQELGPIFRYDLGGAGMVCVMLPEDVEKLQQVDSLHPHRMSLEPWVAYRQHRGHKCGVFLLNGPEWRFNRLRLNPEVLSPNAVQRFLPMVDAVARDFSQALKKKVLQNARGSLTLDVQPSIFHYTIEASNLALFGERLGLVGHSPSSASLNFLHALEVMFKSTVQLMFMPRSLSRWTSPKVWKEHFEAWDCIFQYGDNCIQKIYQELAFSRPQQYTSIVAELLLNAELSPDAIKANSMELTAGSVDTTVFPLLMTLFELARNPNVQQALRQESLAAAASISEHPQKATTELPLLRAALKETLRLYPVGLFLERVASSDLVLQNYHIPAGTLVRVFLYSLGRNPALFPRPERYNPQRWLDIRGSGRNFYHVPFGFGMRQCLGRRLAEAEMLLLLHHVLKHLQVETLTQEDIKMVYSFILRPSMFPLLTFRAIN
From the text: as §1, §2, §3, §4, §5, §6

Chain of CYP11B2 (P19099 25-503): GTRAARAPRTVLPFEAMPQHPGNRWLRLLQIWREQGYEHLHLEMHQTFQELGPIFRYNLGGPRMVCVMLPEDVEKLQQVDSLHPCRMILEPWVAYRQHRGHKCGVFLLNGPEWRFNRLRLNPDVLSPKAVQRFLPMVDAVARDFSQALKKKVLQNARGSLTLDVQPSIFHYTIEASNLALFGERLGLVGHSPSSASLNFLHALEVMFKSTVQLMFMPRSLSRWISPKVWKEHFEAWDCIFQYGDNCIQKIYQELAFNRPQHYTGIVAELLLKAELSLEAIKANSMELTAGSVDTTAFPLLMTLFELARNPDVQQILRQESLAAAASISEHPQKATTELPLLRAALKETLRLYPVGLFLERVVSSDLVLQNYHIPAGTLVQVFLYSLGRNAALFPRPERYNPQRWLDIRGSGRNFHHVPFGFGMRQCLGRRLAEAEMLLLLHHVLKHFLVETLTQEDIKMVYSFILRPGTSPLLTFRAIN

Structure (SMILES) | EC50 (CYP11B2) [nM] | EC50 (human CYP11B1) [µM]
NC1CCc2cncc(-c3ccc(C(F)(F)F)c(F)c3)c21 (racemic) [Example 1, (rac)-4-(3-Fluoro-4-(trifluoromethyl)phenyl)-6,7-dihydro-5H-cyclopenta[c]pyridin-5-amine] | 263 | 5.35
OC1CCc2cncc(-c3ccc(C(F)(F)F)c(F)c3)c21 (racemic) [Example 2, (rac)-4-(3-Fluoro-4-(trifluoromethyl)phenyl)-6,7-dihydro-5H-cyclopenta[c]pyridin-5-ol] | 69 | 2.34
CC1(O)CCc2cncc(-c3ccc(C(F)(F)F)c(F)c3)c21 (racemic) [Example 3, (rac)-4-(3-Fluoro-4-(trifluoromethyl)phenyl)-5-methyl-6,7-dihydro-5H-cyclopenta[c]pyridin-5-ol] | 45 | 2.34
OC1(c2ccccc2)CCc2cncc(-c3ccc(C(F)(F)F)c(F)c3)c21 (racemic) [Example 4, (rac)-4-(3-Fluoro-4-(trifluoromethyl)phenyl)-5-phenyl-6,7-dihydro-5H-cyclopenta[c]pyridin-5-ol] | 50 | 1.96
OC1CCc2cncc(-c3ccc(C(F)(F)F)cc3F)c21 (racemic) [Example 5, (rac)-4-[2-Fluoro-4-(trifluoromethyl)phenyl]-6,7-dihydro-5H-cyclopenta[c]pyridin-5-ol] | 133 | 3.33
CC1(O)CCc2cncc(-c3ccc(C(F)(F)F)cc3F)c21 (racemic) [Example 6, (rac)-4-[2-Fluoro-4-(trifluoromethyl)phenyl]-5-methyl-6,7-dihydrocyclopenta[c]pyridin-5-ol] | 739 | > 30
CC(C)C1(O)CCc2cncc(-c3ccc(C(F)(F)F)cc3F)c21 (racemic) [Example 7, (rac)-4-[2-Fluoro-4-(trifluoromethyl)phenyl]-5-isopropyl-6,7-dihydrocyclopenta[c]pyridin-5-ol] | 740 | 14.4
OC1(c2ccccc2)CCc2cncc(-c3ccc(C(F)(F)F)cc3F)c21 (racemic) [Example 8, (rac)-4-[2-Fluoro-4-(trifluoromethyl)phenyl]-5-phenyl-6,7-dihydrocyclopenta[c]pyridin-5-ol] | 33 | 7.38
CCOC(=O)CC1CCc2cncc(-c3ccc(C(F)(F)F)c(F)c3)c21 (racemic) [Example 11, (rac)-Ethyl 2-[4-[3-fluoro-4-(trifluoromethyl)phenyl]-6,7-dihydro-5H-cyclopenta[c]pyridin-5-yl]acetate] | 64 | 0.367
CNC(=O)CC1CCc2cncc(-c3ccc(C(F)(F)F)c(F)c3)c21 (racemic) [Example 12, (rac)-2-[4-[3-Fluoro-4-(trifluoromethyl)phenyl]-6,7-dihydro-5H-cyclopenta[c]pyridin-5-yl]-N-methyl-acetamide] | 113 | 1.03
O=C(CC1CCc2cncc(-c3ccc(C(F)(F)F)c(F)c3)c21)NCC1CC1 (racemic) [Example 13, (rac)-N-(Cyclopropylmethyl)-2-[4-[3-fluoro-4-(trifluoromethyl)phenyl]-6,7-dihydro-5H-cyclopenta[c]pyridin-5-yl]acetamide] | 60 | 1.15
CCCNC(=O)CC1CCc2cncc(-c3ccc(C(F)(F)F)c(F)c3)c21 (racemic) [Example 14, (rac)-2-[4-[3-Fluoro-4-(trifluoromethyl)phenyl]-6,7-dihydro-5H-cyclopenta[c]pyridin-5-yl]-N-propyl-acetamide] | 1530 | 2.6
O=C(CC1CCc2cncc(-c3ccc(C(F)(F)F)c(F)c3)c21)N1CCCCC1 (racemic) [Example 15, (rac)-2-[4-[3-Fluoro-4-(trifluoromethyl)phenyl]-6,7-dihydro-5H-cyclopenta[c]pyridin-5-yl]-1-(1-piperidyl)ethanone] | 832 | > 30
O=C(CC1CCc2cncc(-c3ccc(C(F)(F)F)c(F)c3)c21)N1CCOCC1 (racemic) [Example 16, (rac)-2-[4-[3-Fluoro-4-(trifluoromethyl)phenyl]-6,7-dihydro-5H-cyclopenta[c]pyridin-5-yl]-1-morpholino-ethanone] | 1020 | 3.63
O=C(CC1CCc2cncc(-c3ccc(C(F)(F)F)c(F)c3)c21)Nc1ccon1 (racemic) [Example 17, (rac)-2-[4-[3-Fluoro-4-(trifluoromethyl)phenyl]-6,7-dihydro-5H-cyclopenta[c]pyridin-5-yl]-N-isoxazol-3-yl-acetamide] | 100 | 0.311
O=C(CC1CCc2cncc(-c3ccc(C(F)(F)F)c(F)c3)c21)Nc1cc[nH]n1 (racemic) [Example 18, (rac)-2-[4-[3-Fluoro-4-(trifluoromethyl)phenyl]-6,7-dihydro-5H-cyclopenta[c]pyridin-5-yl-]-N-(1H-pyrazol-3-yl)acetamide] | 597 | 0.282
O=C(CC1CCc2cncc(-c3ccc(C(F)(F)F)cc3F)c21)N1CCCC1 (racemic) [Example 19, (rac)-2-[4-[2-Fluoro-4-(trifluoromethyl)phenyl]-6,7-dihydro-5H-cyclopenta[c]pyridin-5-yl]-1-pyrrolidin-1-yl-ethanone] | 442 | 8.47
CCN(C)C(=O)CC1CCc2cncc(-c3ccc(C(F)(F)F)cc3F)c21 (racemic) [Example 20, (rac)-N-Ethyl-2-[4-[2-fluoro-4-(trifluoromethyl)phenyl]-6,7-dihydro-5H-cyclopenta[c]pyridin-5-yl-]-N-methyl-acetamide] | 213 | 6
CC(C)N(C)C(=O)CC1CCc2cncc(-c3ccc(C(F)(F)F)cc3F)c21 (racemic) [Example 21, (rac)-2-[4-[2-Fluoro-4-(trifluoromethyl)phenyl]-6,7-dihydro-5H-cyclopenta[c]pyridin-5-yl]-N-isopropyl-N-methyl-acetamide] | 413 | 8.36
CN(C(=O)CC1CCc2cncc(-c3ccc(C(F)(F)F)cc3F)c21)C1CC1 (racemic) [Example 22, (rac)-N-Cyclopropyl-2-[4-[2-fluoro-4-(trifluoromethyl)phenyl]-6,7-dihydro-5H-cyclopenta[c]pyridin-5-yl-]-N-methyl-acetamide] | 957 | 9.44
CCN(C(=O)CC1CCc2cncc(-c3ccc(C(F)(F)F)cc3F)c21)C1CC1 (racemic) [Example 23, (rac)-N-Cyclopropyl-N-ethyl-2-[4-[2-fluoro-4-(trifluoromethyl)phenyl]-6,7-dihydro-5H-cyclopenta[c]pyridin-5-yl]acetamide] | 487 | 8.61
C[C@H]1CCCN1C(=O)CC1CCc2cncc(-c3ccc(C(F)(F)F)cc3F)c21 (mixture of isomers) [Example 24, (rac)-2-[4-[2-Fluoro-4-(trifluoromethyl)phenyl]-6,7-dihydro-5H-cyclopenta[c]pyridin-5-yl]-1-[(2S)-2-methylpyrrolidin-1-yl]ethanone] | 205 | 3.97
OC1(c2ccccc2)CCc2cncc(-c3ccc(C(F)(F)F)cc3F)c21 (single isomer, unassigned; (+)) [Example 9, (+)-4-[2-Fluoro-4-(trifluoromethyl)phenyl]-5-phenyl-6,7-dihydrocyclopenta[c]pyridin-5-ol] | 742 | 35
